Patent publication US9974792B2, “Methods for treating cancers” (Gilead Sciences, Inc., priority 2013, dated 2018)

Experiments:
[1] = Example 2: entospletinib plasma pharmacokinetics; format: in vivo, human; conditions: 800 mg twice a day, fasted
From the text: Clinic visits, including laboratory tests and pharmacodynamic measurements, were scheduled for day 1 of each 28-day cycle. Blood samples for pharmacokinetic analyses of entospletinib were collected on day 1 of each 28-day cycle, on days 8, 15, and 22 of cycle 1 and on day 15 of cycle 2. Additional safety monitoring visits took place on days 8, 15, and 22 of cycle 1 and day 15 of cycle 2.

[2] = tested on: phosphorylated Btk in CD19+CD5+ circulating tumor cells; experiment: Example 1: BCR-mediated signaling, intracellular phosphoprotein flow cytometry; format: in vivo, human; conditions: Days 8 and 29 vs Day 1; CLL subjects (n=35)
From the text: (§1) Nominal p-values from tests of mean change of Day 8 and 29 from Day 1 using mixed model for repeated measures are <0.0005.

[3] = tested on: phosphorylated Blnk in CD19+CD5+ circulating tumor cells; experiment: as above; format: in vivo, human; conditions: Days 8 and 29 vs Day 1; CLL subjects (n=35)
From the text: as §1

[4] = tested on: phosphorylated Syk in CD19+CD5+ circulating tumor cells; experiment: as above; format: in vivo, human; conditions: Days 8 and 29 vs Day 1; CLL subjects (n=35)
From the text: as §1

[5] = tested on: CCL3/MIP1alpha, CCL4/MIP1beta, CCL22/MDC, and TNFalpha; experiment: Example 1: plasma chemokine/cytokine levels by Luminex immunoassays; format: in vivo, human; conditions: Days 8 and 29 vs Day 1; CLL subjects (n=20)
From the text: FIG. 9 summarizes the inhibition of BCR-mediated chemokine/cytokines after treatment in CLL subjects.

[6] = tested on: subjects with relapsed or refractory CLL
Description: The safety and efficacy of entospletinib was tested in a phase 2 trial in separate cohorts of subjects with CLL, indolent non-Hodgkin lymphoma (iNHL), mantle cell lymphoma (MCL), or diffuse large B-cell lymphoma (DLBCL). This trial was registered at www.clinicaltrials.gov as #NCT01799889.
A phase 2, open-label, single-agent study was completed to evaluate the efficacy, safety, tolerability, and pharmacodynamics of entospletinib in subjects with relapsed or refractory hematologic malignancies.
Subjects who were at least 18 years of age with a documented diagnosis of CLL, as established by the International Workshop on CLL, with progressive disease (PD) were eligible for the study. […] The presence of radiographically measurable lymphadenopathy or extranodal lymphoid malignancy as assessed by computed tomography (CT) or magnetic resonance imaging (MRI) was required for enrollment. […] A Karnofsky performance status of at least 60% and a life expectancy of at least 3 months were required. Required screening laboratory data were collected within 5 weeks before administration of study drug. Subjects with any degree of neutropenia, thrombocytopenia, or anemia attributed to the malignancy by the treating physician were eligible to enroll.
Treatment with entospletinib was at a dose of 800 mg twice a day over 28-day cycles under fasted conditions. Fasting was defined as no food or liquids other than water for 2 hours pre- and 1 hour post-dose.
CT or MRI scans were used to document sites of disease, identify target lesions, and assess response and disease progression. […] The findings of an independent review committee were used for analyses of PFS and other tumor control end points.
Secondary end points included tolerability, objective response rate (ORR), duration of response (DOR), time to response, and lymph node response rate. […] Exploratory end points included plasma drug concentrations and pharmacodynamic biomarkers.
PFS was defined as the interval from start of treatment to disease progression or death from any cause and analyzed using Kaplan-Meier methods. The findings of the Independent Review Committee (IRC) were considered primary for analyses of PFS and other tumor control responses. […] DOR was defined as the time from when the first response (CR or PR) was achieved until the earlier of the first documentation of definitive disease progression or death from any cause.

[7] = tested on: human subjects with CLL or NHL; experiment: Example 1: safety, disposition and adverse events (Safety Data Set);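 note: evaluated subjects had CLL, FL, DLBCL, MCL, LPL, SLL or MZL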
Description: Subjects having various hematologic malignancies were evaluated, including subjects with chronic lymphocytic leukemia (CLL), follicular lymphoma (FL), diffuse large B-cell lymphoma (DLBCL), mantle cell lymphoma (MCL), lymphoplasmacytic lymphoma (LPL), small lymphocytic lymphoma (SLL), and marginal zone lymphoma (MZL). The sample size was 10-40/arm.
Alanine aminotransferase (ALT) was also measured in the subjects.

[8] = out of 78 subjects, 800 mg BID fasting

c1cn2cc(-c3ccc4cn[nH]c4c3)nc(Nc3ccc(N4CCOCC4)cc3)c2n1 [compound of formula I, 6-(1H-indazol-6-yl)-N-(4-morpholinophenyl)imidazo[1,2-a]pyrazin-8-amine]
Ctrough, mean (% coefficient of variation) [1]: 1100 (44%) ng/mL | Cmax ([1]; human, oral, read-out: Cmax, mean (% coefficient of variation)): 1.49 µg/mL | phosphorylated Btk in CD19+CD5+ circulating tumor cells [2]: downregulation | phosphorylated Blnk in CD19+CD5+ circulating tumor cells [3]: downregulation | phosphorylated Syk in CD19+CD5+ circulating tumor cells [4]: downregulation | BCR-mediated chemokine/cytokines, plasma levels [5]: inhibition | DOR exceeded by seventy-five percent of subjects ([6]; 23 responding CLL subjects): > 6.5 months | median DOR ([6]; 23 responding CLL subjects): not yet been reached | subjects achieving at least a 50% decrease in SPD from baseline ([6]; 39 evaluable CLL subjects): 61.5% | subjects achieving reduction in adenopathy ([6]; 39 evaluable CLL subjects): 94.5% | subjects with a less than 50% decrease in SPD from baseline ([6]; 39 evaluable CLL subjects): 33% | Discontinued study drug: AEs, % ([6]; CLL N = 41): (8.8%) | Discontinued study drug: Death, % ([6]; CLL N = 41): (2.4%) | Discontinued study drug: Progressive disease, % ([6]; CLL N = 41): (34.1%) | PFS exceeded by seventy-five percent of the subjects ([6]; CLL cohort): > 5.4 months | death (PFS event), % ([6]; CLL cohort, 41 subjects): 2.4% | subjects with PFS events, % ([6]; CLL cohort, 41 subjects): 31.7% | subjects with disease progression, % ([6]; CLL cohort, 41 subjects): 29.3% | 24 weeks PFS (primary end point) ([6]; CLL cohort, 41 subjects, median follow up 5.5 months): 69.8% | Median PFS ([6]; CLL cohort, median follow up 5.5 months): not yet been reached | ORR ([6]; CLL subjects): 56.1% | subjects achieving a CR ([6]; CLL subjects): no subject | subjects achieving a PR ([6]; CLL subjects): 23 subjects | subjects with dose reduced to 400 mg ([6]; CLL subjects): 4.9% | subjects with dose reduced to 600 mg ([6]; CLL subjects): 14.6% | subjects with progressive disease (best response) ([6]; CLL subjects): 2.4% | subjects with stable disease ([6]; CLL subjects): 44% | time for mean absolute lymphocyte count to return to baseline ([6]; CLL subjects): approximately 3 months | nodal response (50% reduction in SPD) with persistent lymphocytosis, % ([6]; CLL subjects with stable disease): 4.9% | nodal response with persistent lymphocytosis, subjects ([6]; CLL subjects, additional to ORR): 2 subjects | subjects requiring at least one dose reduction from the starting dose ([6]; CLL subjects, starting dose 800 mg twice a day): 19.5% | mean absolute lymphocyte count ([6]; day 8, rose from 50,090): 72,980 lymphocytes per microliter | responding subjects with a PR at the first post-baseline evaluation ([6]; of 23 responding subjects, scheduled at week 8): 65.2% | differences in ORR within subgroups ([6]; sex, age, number of prior therapies, IGHV mutation status, 17p deletion/TP53 mutation status): no significant differences | Discontinuing study drug: Adverse Events, % ([7]; ALL N = 78): (14.1%) | Discontinuing study drug: Progressive Disease, % ([7]; ALL N = 78): (19.2%) | Discontinuing study drug: Related AEs, % ([7]; ALL N = 78): (7.7%) | Discontinuing study drug: Adverse Events, % ([7]; CLL N = 39): (7.7%) | Discontinuing study drug: Progressive Disease, % ([7]; CLL N = 39): (10.3%) | Discontinuing study drug: Related AEs, % ([7]; CLL N = 39): (5.1%) | Discontinuing study drug: Adverse Events, % ([7]; NHL N = 39): (20.5%) | Discontinuing study drug: Progressive Disease, % ([7]; NHL N = 39): (28.2%) | Discontinuing study drug: Related AEs, % ([7]; NHL N = 39): (10.3%) | Any event, All Grades, % ([7]; Safety Data Set N=78): (93.6) % | Constipation, All Grades, % ([7]; Safety Data Set N=78): (21.8) % | Constipation, Grade 1 ([7]; Safety Data Set N=78): 11 | Constipation, Grade 2 ([7]; Safety Data Set N=78): 5 | Constipation, Grade 3 ([7]; Safety Data Set N=78): 1 | Cough, All Grades, % ([7]; Safety Data Set N=78): (14.1) % | Cough, Grade 1 ([7]; Safety Data Set N=78): 9 | Cough, Grade 2 ([7]; Safety Data Set N=78): 1 | Cough, Grade 3 ([7]; Safety Data Set N=78): 1 | Decreased appetite, All Grades, % ([7]; Safety Data Set N=78): (20.5) % | Decreased appetite, Grade 1 ([7]; Safety Data Set N=78): 10 | Decreased appetite, Grade 2 ([7]; Safety Data Set N=78): 6 | Diarrhea, All Grades, % ([7]; Safety Data Set N=78): (28.2) % | Diarrhea, Grade 1 ([7]; Safety Data Set N=78): 20 | Diarrhea, Grade 2 ([7]; Safety Data Set N=78): 2 | Dizziness, All Grades, % ([7]; Safety Data Set N=78): (17.9) % | Dizziness, Grade 1 ([7]; Safety Data Set N=78): 14 | Dyspepsia, All Grades, % ([7]; Safety Data Set N=78): (10.3) % | Dyspepsia, Grade 1 ([7]; Safety Data Set N=78): 3 | Dyspepsia, Grade 2 ([7]; Safety Data Set N=78): 5 | Fatigue, All Grades, % ([7]; Safety Data Set N=78): (43.6) % | Fatigue, Grade 1 ([7]; Safety Data Set N=78): 13 | Fatigue, Grade 2 ([7]; Safety Data Set N=78): 16 | Fatigue, Grade 3 ([7]; Safety Data Set N=78): 5 | Headache, All Grades, % ([7]; Safety Data Set N=78): (20.5) % | Headache, Grade 1 ([7]; Safety Data Set N=78): 13 | Headache, Grade 2 ([7]; Safety Data Set N=78): 2 | Headache, Grade 3 ([7]; Safety Data Set N=78): 1 | Insomnia, All Grades, % ([7]; Safety Data Set N=78): (14.1) % | Insomnia, Grade 1 ([7]; Safety Data Set N=78): 8 | Insomnia, Grade 2 ([7]; Safety Data Set N=78): 3 | Nausea, All Grades, % ([7]; Safety Data Set N=78): (30.8) % | Nausea, Grade 1 ([7]; Safety Data Set N=78): 18 | Nausea, Grade 2 ([7]; Safety Data Set N=78): 4 | Nausea, Grade 3 ([7]; Safety Data Set N=78): 2 | Oedema peripheral, All Grades, % ([7]; Safety Data Set N=78): (12.8) % | Oedema peripheral, Grade 1 ([7]; Safety Data Set N=78): 8 | Oedema peripheral, Grade 2 ([7]; Safety Data Set N=78): 2 | Pyrexia, All Grades, % ([7]; Safety Data Set N=78): (19.2) % | Pyrexia, Grade 1 ([7]; Safety Data Set N=78): 9 | Pyrexia, Grade 2 ([7]; Safety Data Set N=78): 6 | Vomiting, All Grades, % ([7]; Safety Data Set N=78): (10.3) % | Vomiting, Grade 1 ([7]; Safety Data Set N=78): 6 | Vomiting, Grade 2 ([7]; Safety Data Set N=78): 2 | Grade 3 and 4 reversible ALT elevations, % of subjects [7, 8]: 12% | Grade 3 and 4 reversible ALT elevations, number of subjects [7, 8]: 9 subjects
